# Patent US11608341B2, “Substituted tetrahydropyrazolo[3,4-d]pyrimidines and tetrahydropyrazolo[4,3-d]pyrimidines as C5A receptor modulators” (Idorsia Pharmaceuticals Ltd., priority 2018, dated 2023)
# Molecular target: T1, C5AR1 (Homo sapiens, UniProt P21730)
# T1 construct: host or cells: CHO-K1
# T1 sequence (P21730 1-350): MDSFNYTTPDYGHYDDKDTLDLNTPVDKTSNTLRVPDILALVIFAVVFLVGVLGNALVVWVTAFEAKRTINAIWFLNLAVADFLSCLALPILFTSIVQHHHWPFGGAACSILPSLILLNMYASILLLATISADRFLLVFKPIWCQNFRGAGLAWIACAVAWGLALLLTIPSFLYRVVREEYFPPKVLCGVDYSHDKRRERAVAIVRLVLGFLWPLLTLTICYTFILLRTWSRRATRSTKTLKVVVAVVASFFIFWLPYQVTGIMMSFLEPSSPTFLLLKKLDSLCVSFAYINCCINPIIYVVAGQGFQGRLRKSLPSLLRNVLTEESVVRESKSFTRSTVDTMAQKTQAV
# Test: In vitro assay: antagonism of C5a-induced beta-arrestin recruitment (PathHunter) in CHO-K1 C5AR1 beta-arrestin cell line
# Assay type: cell-based
# Details: antagonistic activity, 1-10 nM C5a agonist, geometric mean where several measurements, read-out: C5aR IC50
# Method: 5 μl Antagonist at 6-fold end concentration or DMSO control is added to assay medium and subsequently 5 μl 1-10 nM C5a agonist at 6 fold end concentration. Cells are centrifuged for 1 min at 1000 rpm and incubated for 1.5 hour in at 37° C. Plates are equilibrated at room temperature for several minutes before adding 12 μl/well Detection Reagent (PathHunter Detection Kit, DiscoverX, Cat #93-0001). Plates are centrifuged for 1 min at 1000 rpm and incubated for 45 minutes at RT before being measured on a Fluostar Optima, BMG Labtech. IC50 values are calculated from a serial dilution range of antagonist using inhouse software and given in nmol/l.
# The calculated IC50 values may fluctuate depending on the daily cellular assay performance. Fluctuations of this kind are known to those skilled in the art. Average IC50 values from several measurements are given as geometric mean values.
row,Structure (SMILES),IC50
1,"Cc1cccc(F)c1N1CCC(N2C(=O)N(Cc3ccccc3C(F)(F)F)c3nn(C4CC4)cc3C2C)CC1 (single isomer, unassigned) [Example 309]",11 nM
2,"Cc1cccc(F)c1N1CCC(N2C(=O)N(Cc3ccccc3C(F)(F)F)c3nn(C4CC4)cc3C2C)CC1 (single isomer, unassigned) [Example 310]",30 nM
3,"CC1c2cn(C3CC3)nc2N(Cc2ccccc2C(F)(F)F)C(=O)N1C1CCN(c2c(F)cccc2C(F)F)CC1 (single isomer, unassigned) [Example 311]",13 nM
4,"CC1c2cn(C3CC3)nc2N(Cc2ccccc2C(F)(F)F)C(=O)N1C1CCN(c2c(F)cccc2C(F)F)CC1 (single isomer, unassigned) [Example 312]",72 nM
5,"CC1c2cn(C)nc2N(Cc2ccccc2C(F)(F)F)C(=O)N1C1CCN(c2c(F)cccc2C(F)F)CC1 (single isomer, unassigned) [Example 314]",8 nM
6,"CC1c2cn(C)nc2N(Cc2ccccc2C(F)(F)F)C(=O)N1C1CCN(c2c(F)cccc2C(F)F)CC1 (single isomer, unassigned) [Example 315]",362 nM
7,"Cc1cccc(F)c1N1CCC(N2C(=O)N(Cc3ccccc3C(F)(F)F)c3n[nH]cc3C2C)CC1 (single isomer, unassigned) [Example 316]",9 nM
8,"Cc1cccc(F)c1N1CCC(N2C(=O)N(Cc3ccccc3C3CC3)c3nn(C)cc3C2C)CC1 (single isomer, unassigned) [Example 317]",11 nM
9,"Cc1cccc(F)c1N1CCC(N2C(=O)N(Cc3ccccc3C3CC3)c3nn(C)cc3C2C)CC1 (single isomer, unassigned) [Example 318]",131 nM
10,"CC1c2cn(C)nc2N(Cc2ccccc2C(F)(F)F)C(=O)N1C1CCN(c2c(F)cccc2Cl)CC1 (single isomer, unassigned) [Example 319]",2 nM
11,"CC1c2cn(C)nc2N(Cc2ccccc2C(F)(F)F)C(=O)N1C1CCN(c2c(F)cccc2Cl)CC1 (single isomer, unassigned) [Example 320]",325 nM
12,"CC1c2cn(C)nc2N(Cc2ccccc2C2CC2)C(=O)N1C1CCN(c2c(F)cccc2Cl)CC1 (single isomer, unassigned) [Example 321]",196 nM
13,"CC1c2cn(C)nc2N(Cc2ccccc2C2CC2)C(=O)N1C1CCN(c2c(F)cccc2Cl)CC1 (single isomer, unassigned) [Example 322]",3 nM
14,"CC1c2cn(C)nc2N(Cc2ccccc2C2CC2)C(=O)N1C1CCN(c2c(F)cccc2C2CC2)CC1 (single isomer, unassigned) [Example 325]",14 nM
15,"CC1c2cn(C)nc2N(Cc2ccccc2C2CC2)C(=O)N1C1CCN(c2c(F)cccc2C2CC2)CC1 (single isomer, unassigned) [Example 326]",355 nM
16,"CC1c2nn(C3CC3)cc2N(Cc2ccccc2C(F)(F)F)C(=O)N1C1CCN(c2c(F)cccc2Cl)CC1 (single isomer, unassigned) [Example 327]",520 nM
17,"CC1c2nn(C3CC3)cc2N(Cc2ccccc2C(F)(F)F)C(=O)N1C1CCN(c2c(F)cccc2Cl)CC1 (single isomer, unassigned) [Example 328]",10 nM
18,"CC1c2nn(C3CC3)cc2N(Cc2ccccc2C(F)(F)F)C(=O)N1C1CCN(c2c(F)cccc2C(F)F)CC1 (single isomer, unassigned) [Example 329]",18 nM
19,"CC1c2nn(C3CC3)cc2N(Cc2ccccc2C(F)(F)F)C(=O)N1C1CCN(c2c(F)cccc2C(F)F)CC1 (single isomer, unassigned) [Example 330]",1420 nM
20,"COc1nccc(C)c1N1CCC(N2C(=O)N(Cc3ccccc3C(F)(F)F)c3nn(C)cc3C2C)CC1 (single isomer, unassigned) [Example 331]",6 nM
21,"COc1nccc(C)c1N1CCC(N2C(=O)N(Cc3ccccc3C(F)(F)F)c3nn(C)cc3C2C)CC1 (single isomer, unassigned) [Example 332]",184 nM
22,"CC1c2cn(C)nc2N(Cc2ccccc2C(F)(F)F)C(=O)N1C1CCN(c2c(F)cccc2C2CC2)CC1 (single isomer, unassigned) [Example 334]",210 nM
23,"CC1c2cn(C3CC3)nc2N(Cc2ccccc2C(F)(F)F)C(=O)N1C1CCN(c2c(F)cccc2Cl)CC1 (single isomer, unassigned) [Example 335]",12 nM
24,"CC1c2cn(C3CC3)nc2N(Cc2ccccc2C(F)(F)F)C(=O)N1C1CCN(c2c(F)cccc2Cl)CC1 (single isomer, unassigned) [Example 336]",89 nM
25,"CC1c2cn(C3CC3)nc2N(Cc2ccccc2C2CC2)C(=O)N1C1CCN(c2c(F)cccc2Cl)CC1 (single isomer, unassigned) [Example 338]",110 nM

row,Structure (SMILES),IC50
1,"Cc1cccc(F)c1N1CCC(N2C(=O)N(Cc3ccccc3C3CC3)c3nn(C4CC4)cc3C2C)CC1 (single isomer, unassigned) [Example 339]",12 nM
2,"Cc1cccc(F)c1N1CCC(N2C(=O)N(Cc3ccccc3C3CC3)c3nn(C4CC4)cc3C2C)CC1 (single isomer, unassigned) [Example 340]",67 nM
3,"COc1nccc(C)c1N1CCC(N2C(=O)N(Cc3ccccc3C(F)(F)F)c3nn(C4CC4)cc3C2C)CC1 (single isomer, unassigned) [Example 344]",8 nM
4,"COc1nccc(C)c1N1CCC(N2C(=O)N(Cc3ccccc3C(F)(F)F)c3nn(C4CC4)cc3C2C)CC1 (single isomer, unassigned) [Example 345]",35 nM
5,"COc1nccc(C(F)F)c1N1CCC(N2C(=O)N(Cc3ccccc3C(F)(F)F)c3nn(C)cc3C2C)CC1 (single isomer, unassigned) [Example 346]",7 nM
6,"COc1nccc(C(F)F)c1N1CCC(N2C(=O)N(Cc3ccccc3C(F)(F)F)c3nn(C)cc3C2C)CC1 (single isomer, unassigned) [Example 347]",201 nM
7,"CC1c2c[nH]nc2N(Cc2ccccc2C(F)(F)F)C(=O)N1C1CCN(c2c(F)cccc2C(F)F)CC1 (single isomer, unassigned) [Example 348]",11 nM
8,"CC1c2c[nH]nc2N(Cc2ccccc2C(F)(F)F)C(=O)N1C1CCN(c2c(F)cccc2C(F)F)CC1 (single isomer, unassigned) [Example 349]",918 nM
9,"CC1c2c[nH]nc2N(Cc2ccccc2C(F)(F)F)C(=O)N1C1CCN(c2c(F)cccc2Cl)CC1 (single isomer, unassigned) [Example 350]",4 nM
10,"CC1c2c[nH]nc2N(Cc2ccccc2C(F)(F)F)C(=O)N1C1CCN(c2c(F)cccc2Cl)CC1 (single isomer, unassigned) [Example 351]",784 nM
11,"COc1nccc(C(F)F)c1N1CCC(N2C(=O)N(Cc3ccccc3C(F)(F)F)c3n[nH]cc3C2C)CC1 (single isomer, unassigned) [Example 352]",11 nM
12,"COc1nccc(C(F)F)c1N1CCC(N2C(=O)N(Cc3ccccc3C(F)(F)F)c3n[nH]cc3C2C)CC1 (single isomer, unassigned) [Example 353]",997 nM
13,"Cc1cccc(F)c1N1CCC(N2C(=O)N(Cc3ncccc3C(F)(F)F)c3nn(C)cc3C2C)CC1 (single isomer, unassigned) [Example 354]",5 nM
14,"Cc1cccc(F)c1N1CCC(N2C(=O)N(Cc3ncccc3C(F)(F)F)c3nn(C)cc3C2C)CC1 (single isomer, unassigned) [Example 355]",298 nM
15,"COc1nccc(C)c1N1CCC(N2C(=O)N(Cc3ncccc3C(F)(F)F)c3nn(C)cc3C2C)CC1 (single isomer, unassigned) [Example 356]",5 nM
16,"COc1nccc(C)c1N1CCC(N2C(=O)N(Cc3ncccc3C(F)(F)F)c3nn(C)cc3C2C)CC1 (single isomer, unassigned) [Example 357]",572 nM
17,"COc1nccc(C(F)F)c1N1CCC(N2C(=O)N(Cc3ccccc3C(F)(F)F)c3nn(C4CC4)cc3C2C)CC1 (single isomer, unassigned) [Example 358]",12 nM
18,"COc1nccc(C(F)F)c1N1CCC(N2C(=O)N(Cc3ccccc3C(F)(F)F)c3nn(C4CC4)cc3C2C)CC1 (single isomer, unassigned) [Example 359]",185 nM
19,"CC1c2cn(C3CC3)nc2N(Cc2ccccc2C(F)(F)F)C(=O)N1C1CCN(c2c(F)cccc2Br)CC1 (single isomer, unassigned) [Example 360]",3 nM
20,"CC1c2cn(C3CC3)nc2N(Cc2ccccc2C(F)(F)F)C(=O)N1C1CCN(c2c(F)cccc2Br)CC1 (single isomer, unassigned) [Example 361]",13 nM
21,"COc1nccc(C(F)(F)F)c1N1CCC(N2C(=O)N(Cc3ccccc3C(F)(F)F)c3nn(C)cc3C2C)CC1 (single isomer, unassigned) [Example 362]",9 nM
22,"COc1nccc(C(F)(F)F)c1N1CCC(N2C(=O)N(Cc3ccccc3C(F)(F)F)c3nn(C)cc3C2C)CC1 (single isomer, unassigned) [Example 363]",97 nM
23,"COc1nccc(C(F)F)c1N1CCC(N2C(=O)N(Cc3ccccc3C3CC3)c3nn(C)cc3C2C)CC1 (single isomer, unassigned) [Example 367]",286 nM
24,"COc1nccc(C)c1N1CCC(N2C(=O)N(Cc3ccccc3C3CC3)c3nn(C)cc3C2C)CC1 (single isomer, unassigned) [Example 369]",256 nM
